Test results reported in ChEMBL document CHEMBL5576096, “Triplinones A-H: Anti-Inflammatory Arylalkenyl α,β-Unsaturated-δ-Lactones Isolated from the Leaves of Australian Rainforest Plant Cryptocarya triplinervis (Lauraceae)” (J Nat Prod, 2024).

What was measured:
[1] = Therapeutic index, ratio of LC50 for cytotoxicity against LPS/IFNgamma-stimulated mouse RAW264.7 cells to IC50 for inhibition of NO production in LPS/IFNgamma-stimulated mouse RAW264.7 cells; format: toxicity, cell-based; conditions: LPS/IFNgamma-stimulated RAW264.7 cells, read-out: Ratio LC50/IC50
[2] = Cytotoxicity against LPS/IFNgamma-stimulated mouse RAW264.7 cells assessed as reduction in cell viability after 24 hrs by Alamar Blue assay; format: toxicity, cell-based; conditions: LPS/IFNgamma-stimulated RAW264.7 cells, read-out: LC50
[3] = Inhibition of TNF-alpha production in LPS/IFNgamma-stimulated mouse RAW264.7 cells preincubated for 1 hr followed by LPS/IFNgamma addition and measured after 24 hrs by ELISA; format: functional, cell-based
RAW264.7 = test: Inhibition of NO production in LPS/IFNgamma-stimulated mouse RAW264.7 cells preincubated for 1 hr followed by LPS/IFNgamma addition and measured after 24 hrs by griess reagent based assay; format: functional, cell-based

| Structure (SMILES) | selectivity ratio [1] | CC50 at 24 h [2] | IC50 [3] | IC50 (RAW264.7) |
| --- | --- | --- | --- | --- |
| O=C1C=CC[C@H](C[C@@H](O)CCC[C@H](O)C[C@@H](O)CC/C=C/c2ccccc2)O1 | 2.8 | 41.3 µM | 28.9 µM | 15 µM |
| O=C1C=CC[C@H](CCC[C@H](O)C[C@@H](O)CC/C=C/c2ccccc2)O1 | 5.6 | 33.4 µM | 27.4 µM | 6 µM |
| CC(=O)O[C@H](C[C@@H](O)CC/C=C/c1ccccc1)C[C@H]1CC=CC(=O)O1 | 9.5 | 97.9 µM | 17.1 µM | 10.3 µM |
| O=C1C=CC[C@H](/C=C/C[C@H](O)C[C@@H](O)CC/C=C/c2ccccc2)O1 | 10.9 | 79.8 µM | 28.3 µM | 7.3 µM |
| O=C1C=CC[C@H](C[C@H](O)C[C@@H](O)CC/C=C/c2ccccc2)O1 | 6.8 | 37.6 µM | 29.4 µM | 5.6 µM |
| O=C1C=CC[C@H](CC(O)/C=C/C[C@H](O)C[C@@H](O)CC/C=C/c2ccccc2)O1 (stereo partly specified) | 2.5 | 159 µM | 39.1 µM | 64.7 µM |
| O=C1C=CC[C@H](/C=C/C=C/C[C@H](O)C[C@@H](O)CC/C=C/c2ccccc2)O1 | 7.6 | 41.3 µM | 27.9 µM | 5.4 µM |
| COc1cc(/C=C/C(=O)CC(=O)/C=C/c2ccc(O)c(OC)c2)ccc1O [CURCUMIN] | 3.2 | 73 µM | 31.2 µM | 22.5 µM |
| O=C1C=CC[C@H](C[C@@H](O)C[C@H](O)C[C@@H](O)CC/C=C/c2ccccc2)O1 | > 2.7 | > 278 µM | > 278 µM | 102 µM |
